The target in one data set is T1, MMP-2 (Homo sapiens, UniProt P08253).
T1 construct: purchased Calbiochem-Novabiochem International, Inc
T1 sequence (P08253 110-660): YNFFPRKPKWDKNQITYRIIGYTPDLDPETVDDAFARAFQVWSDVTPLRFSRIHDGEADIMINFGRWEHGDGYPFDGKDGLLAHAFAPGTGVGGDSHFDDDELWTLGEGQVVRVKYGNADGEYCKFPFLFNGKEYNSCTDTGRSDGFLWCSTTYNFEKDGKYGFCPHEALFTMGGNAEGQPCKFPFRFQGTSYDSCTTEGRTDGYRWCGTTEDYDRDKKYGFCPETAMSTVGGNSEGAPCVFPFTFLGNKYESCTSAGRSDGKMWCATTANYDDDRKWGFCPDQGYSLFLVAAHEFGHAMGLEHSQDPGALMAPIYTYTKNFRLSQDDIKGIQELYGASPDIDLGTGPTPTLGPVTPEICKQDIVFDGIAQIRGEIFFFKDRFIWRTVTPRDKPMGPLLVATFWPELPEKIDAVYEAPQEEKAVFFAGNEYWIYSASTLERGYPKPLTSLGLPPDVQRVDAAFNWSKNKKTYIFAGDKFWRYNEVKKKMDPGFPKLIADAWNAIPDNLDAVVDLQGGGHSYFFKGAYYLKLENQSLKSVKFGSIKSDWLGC
The experiment in a line: Assay for inhibitory activities on MMP-2 (fluorogenic MOCAc peptide substrate). Format: biochemical. The following applies: MMP-2 purchased from Calbiochem-Novabiochem. The method, then: MMP-2 was purchased from Calbiochem-Novabiochem International, Inc.
(§1) The enzymatic activity on each MMP was analyzed by the method described in “C Graham Knight, Frances Willenbrock and Gillian Murphy: A novel coumarin-labelled peptide for sensitive continuous assays of the matrix metalloproteinases: FEBS LETT., 296, (1992), 263-266”. The substrate: MOCAc-Pro-Leu-Gly-Leu-A2Pr(DNP)-Ala-Arg-NH2 was purchased from Peptide Institute, Inc., Osaka, Japan.
(§2) The measurement of the inhibitory activities of a compound (inhibitor) was carried out by the following four methods;
(§3) A) Reaction with substrate, enzyme (MMPs) and inhibitor
(§4) B) Reaction with substrate and inhibitor, without enzyme
(§5) C) Reaction with substrate and enzyme (MMPs), without inhibitor
(§6) D) Reaction with substrate only
(§7) Each fluorescence values of above four methods was measured and % inhibition was calculated by using the following formula.
(§8) % inhibition={1−(A−B)/(C−D)}×100
(§9) IC50 means the concentration required to inhibit 50% of the enzyme activity.

Another data set has as its target T2, MMP-9 (Homo sapiens, UniProt P14780).
T2 construct: made in house; host or cells: Endogenous secretion by human fibrosarcoma HT1080 cells (ATCC) treated with TPA; purified from the culture medium
The experiment in a line: Assay for inhibitory activities on MMP-9 (fluorogenic MOCAc peptide substrate). Format: biochemical. The following applies: MMP-9 purified from human fibrosarcoma HT1080 cells, activated by TPCK-Trypsin.
Text: MMP-9 was purified by using a combination of procedures described in the method descrived in Y. Okada et al. (Yasunori Okada, Yukio Gonoji, Katsumi Naka, Katsuro Tomita, Isao Nakanishi, Kazushi Iwata and Taro Hayakawa: Matrix metalloproteinase 9 (92-kDa gelatinase/type IV collagenase) from HT1080 human fibrosarcoma cells. Purification and activation of the precursor and enzymic properties. J. Biol. Chem., 267 (1992) 21712-21719 and the other method (1) Yasunori Okada, Tatsuhisa Morodomi, Jan J, Enghild, Ko Suzuki, Atsushi Yasui, Isao Nakanishi, Guy Salvesen and Hideaki Nagase: Matrix metalloproteinase 2 from human rheumatoid synovial fibroblasts. Purification and activation of the precursor and enzymic properties. Eur. J. Biochem. 194 (1990) 721-730 or (2) Robin V Ward, Rosalind M Hembry, John J Reynolds and Gillian Murphy: The purification of tissue inhibitor of metalloproteinase-2 from its 72 kDa progelatinase complex. Biochem. J. 278 (1991) 179-187. Briefly, human fibrosarcoma ATCC HT1080 cell line was cultured to confluent in Dulbecco's Modified Medium (DMEM) containing 10% fetal-calf serum (FCS) at 37° C. for 48 hours (5%). Further, Confluent Cell was cultured in DMEM removed FCS (2nd). To obtain MMP-9, Phorbol-12-myristate-13-acetate (TPA) was added to this DMEM medium at a concentration of 50 ng/ml. The TPA treated medium was centrifuged at 3000 rpm for 15 min and the supernatant was concentrated to 450 ml by a Toyo-Roshi UP-20 apparatus with an ultrafiltration membrane. Then, this concentrated solution was purified by Gelatin-Sepharose and Concanavalin A-Sepharose. The pool containing MMP-9 was dialyzed, concentrated (Toyo-Roshi UP-20) and applied to columns of Sephacryl S-200 and Green A matrix for the separation from TIMP. The obtained Procollagenase was activated by TPCK-Trypsin (final conc. 3 μg/μl reaction mix.) for the assay.
as §1, §2, §3, §4, §5, §6, §7, §8, §9

In US6727266B2, “Substituted tryptophan derivatives” (Shionogi & Co., Ltd., priority 2000, dated 2004) one finds IC50 and melting point data, which are given here for eleven compounds.

T2 sequence (P14780 107-707 limits assumed): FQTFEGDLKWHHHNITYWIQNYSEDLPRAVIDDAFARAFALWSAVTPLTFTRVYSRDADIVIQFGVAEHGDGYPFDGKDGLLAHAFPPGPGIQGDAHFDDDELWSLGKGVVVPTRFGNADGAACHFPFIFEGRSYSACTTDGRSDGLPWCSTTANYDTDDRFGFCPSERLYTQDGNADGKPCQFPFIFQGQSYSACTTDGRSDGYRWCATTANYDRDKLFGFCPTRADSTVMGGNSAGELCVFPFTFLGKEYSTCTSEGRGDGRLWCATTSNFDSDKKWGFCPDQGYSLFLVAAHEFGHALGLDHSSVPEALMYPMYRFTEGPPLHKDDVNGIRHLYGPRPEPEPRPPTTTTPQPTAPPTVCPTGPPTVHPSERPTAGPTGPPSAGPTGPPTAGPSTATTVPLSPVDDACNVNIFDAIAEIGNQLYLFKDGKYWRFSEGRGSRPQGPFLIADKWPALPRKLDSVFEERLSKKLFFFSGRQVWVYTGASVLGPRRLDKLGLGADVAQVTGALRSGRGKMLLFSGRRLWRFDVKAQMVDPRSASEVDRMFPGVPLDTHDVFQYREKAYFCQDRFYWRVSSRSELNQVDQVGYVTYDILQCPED

Usually IC50 stands for the concentration that gives 50% inhibition. In the case of `COc1ccc(-n2nnc(-c3ccc(S(=O)(=O)N[C@H](Cc4c[nH]c5ccc(OC)cc45)C(=O)O)cc3)n2)cc1` [Compound A-11], the half-inhibitory concentration (IC50) on MMP-2 worked out at 5.77 nM; on MMP-9, 16 nM.

For `COc1ccc2[nH]cc(C[C@@H](NS(=O)(=O)c3ccc(-c4ccc(N(C)C)cc4)s3)C(=O)O)c2c1` [Compound A-8], the IC50 worked out at 0.617 nM at MMP-2 and 6.66 nM on MMP-9.

As for `O=C(O)[C@@H](Cc1c[nH]c2ccc(F)cc12)NS(=O)(=O)c1ccc(-c2ccc(N3CCCC3)cc2)s1` [Compound A-9], the IC50 at MMP-2 was 0.137 nM; at MMP-9, 0.534 nM.

On to `Cc1ccc(C#Cc2ccc(S(=O)(=O)N[C@H](Cc3c[nH]c4c(O)cccc34)C(=O)O)s2)cc1` [Compound A-5], for which the half-maximal inhibitory concentration (IC50) on MMP-2 worked out at 1.21 nM; at MMP-9 it was 6.49 nM.

As to `Cc1ccc(C#Cc2ccc(S(=O)(=O)N[C@H](Cc3c[nH]c4cccc(O)c34)C(=O)O)s2)cc1` [Compound A-4], the IC50 against MMP-2 worked out at 0.768 nM; at MMP-9, 24.3 nM.

Regarding `O=C(O)[C@H](Cc1c[nH]c2ccc(F)cc12)NS(=O)(=O)c1ccc(-c2ccc(N3CCCC3)cc2)s1` [Compound A-10], the half-maximal inhibitory concentration (IC50) was found to be 4.04 nM on MMP-2 and 12 nM on MMP-9.

As for `COc1cccc2[nH]cc(C[C@@H](NS(=O)(=O)c3ccc(C#Cc4ccc(C)cc4)s3)C(=O)O)c12` [Compound A-3], the IC50 is 22.8 nM against MMP-2 and 174 nM on MMP-9.

The melting point is the temperature, or range, at which the solid turns liquid. For `Cc1ccc(C#Cc2ccc(S(=O)(=O)N[C@H](Cc3c[nH]c4ccc(O)cc34)C(=O)O)s2)cc1` [Compound A-1], the melting point was 200 to 202 °C (dec.). On MMP-2, this compound yielded an IC50 of 0.223 nM. Besides, the IC50 on MMP-9 was determined as 2.44 nM.

With `COc1ccc2[nH]cc(C[C@@H](NS(=O)(=O)c3ccc(C#Cc4ccc(C)cc4)s3)C(=O)O)c2c1` [Compound A-2], the figures for the IC50 at MMP-2 and on MMP-9 were 10.6 nM and 15.6 nM, respectively.

As for `Cc1ccc(C#Cc2ccc(S(=O)(=O)N[C@@H](Cc3c[nH]c4ccc(F)cc34)C(=O)O)s2)cc1` [Compound A-6], the IC50 against MMP-2 came to 90.8 nM; at MMP-9, 848 nM.

For `O=C(O)[C@H](Cc1c[nH]c2ccc(F)cc12)NS(=O)(=O)c1ccc(-c2nnn(-c3ccccc3)n2)cc1` [Compound A-12], the IC50 on MMP-2 stood at 85.8 nM; on MMP-9, 1420 nM.
